Assay results from ChEMBL document CHEMBL6078672, “Chemical probes for the identification of the molecular targets of honokiol” (Eur J Med Chem, 2025).

Assays:
SK-OV-3 = assay: Cytotoxicity against human SK-OV-3 cells assessed as inhibition of cell growth incubated for 48 hrs by MTT assay; assay type: functional, cell-based; conditions: SK-OV-3, 48 h
OVCAR-3 = assay: Cytotoxicity against human OVCAR-3 cells assessed as inhibition of cell growth incubated for 48 hrs by MTT assay; assay type: functional, cell-based; conditions: OVCAR-3, 48 h
MDA-MB-231 [1] = assay: Cytotoxicity against human MDA-MB-231 cells assessed as inhibition of cell growth incubated for 48 hrs by MTT assay; assay type: functional, cell-based; conditions: MDA-MB-231, 48 h
[2] = Drug localization in human membrane fraction of MDA-MB-231 cells assessed as increase in fluorescent band intensity at 10 uM incubated for 30 mins in presence of honokiol by coomassie brilliant blue staining based SDS-PAGE analysis; assay type: ADME, cell membranes; conditions: mda-mb-231, 0.5 h
[3] = Drug localization in human MDA-MB-231 cells assessed as increase in fluorescent band intensity at 1 to 10 uM incubated for 30 mins in presence of UV irradiation by coomassie brilliant blue staining based SDS-PAGE analysis; assay type: ADME, cell-based; conditions: mda-mb-231, 0.5 h, dose 1-10 µM
[4] = Drug localization in human MDA-MB-231 cells assessed as increase in fluorescent band intensity at 10 uM incubated for 30 mins in presence of honokiol by coomassie brilliant blue staining based SDS-PAGE analysis; assay type: ADME, cell-based; conditions: mda-mb-231, 0.5 h
[5] = Drug localization in human OVCAR-3 cells assessed as increase in fluorescent band intensity at 10 uM incubated for 30 mins by coomassie brilliant blue staining based SDS-PAGE analysis; assay type: ADME, cell-based; conditions: ovcar-3, 0.5 h
[6] = Drug localization in human SK-OV-3 cells assessed as increase in fluorescent band intensity at 10 uM incubated for 30 mins by coomassie brilliant blue staining based SDS-PAGE analysis; assay type: ADME, cell-based; conditions: sk-ov-3, 0.5 h
[7] = Drug localization in human MDA-MB-231 cells assessed as increase in fluorescent band intensity at 10 uM incubated for 30 mins in presence of 2-O-ethylhonokiol by coomassie brilliant blue staining based SDS-PAGE analysis; assay type: ADME, cell-based; conditions: mda-mb-231, 0.5 h
[8] = Drug localization in human membrane fraction of MDA-MB-231 cells assessed as increase in fluorescent band intensity at 10 uM incubated for 30 mins in presence of 2-O-ethylhonokiol by coomassie brilliant blue staining based SDS-PAGE analysis; assay type: ADME, cell membranes; conditions: mda-mb-231, 0.5 h
[9] = Drug localization in human MDA-MB-231 cells assessed as increase in fluorescent band intensity at 20 uM incubated for 30 mins in presence of UV irradiation by coomassie brilliant blue staining based SDS-PAGE analysis; assay type: ADME, cell-based; conditions: mda-mb-231, 0.5 h
[10] = Drug localization in human MDA-MB-231 cells assessed as increase in fluorescent band intensity at 20 uM incubated for 30 mins in absence of UV irradiation by coomassie brilliant blue staining based SDS-PAGE analysis; assay type: ADME, cell-based; conditions: mda-mb-231, 0.5 h
[11] = Drug localization in human MDA-MB-231 cells assessed as increase in fluorescent band intensity incubated for 30 mins in presence of UV irradiation by coomassie brilliant blue staining based SDS-PAGE analysis; assay type: ADME, cell-based; conditions: mda-mb-231, 0.5 h
MDA-MB-231 [12] = assay: Binding affinity to CAPN-1 in human MDA-MB-231 cells assessed as change in melting temperature at 10 uM incubated for 1 hr by cellular thermal shift assay; assay type: cell-based
[13] = target: T1, Protein LYRIC (Homo sapiens) (UniProt Q86UE4); assay: Binding affinity to Lyric in human MDA-MB-231 cells assessed as change in melting temperature at 10 uM incubated for 1 hr by cellular thermal shift assay; assay type: cell-based
T1 sequence (whole entry): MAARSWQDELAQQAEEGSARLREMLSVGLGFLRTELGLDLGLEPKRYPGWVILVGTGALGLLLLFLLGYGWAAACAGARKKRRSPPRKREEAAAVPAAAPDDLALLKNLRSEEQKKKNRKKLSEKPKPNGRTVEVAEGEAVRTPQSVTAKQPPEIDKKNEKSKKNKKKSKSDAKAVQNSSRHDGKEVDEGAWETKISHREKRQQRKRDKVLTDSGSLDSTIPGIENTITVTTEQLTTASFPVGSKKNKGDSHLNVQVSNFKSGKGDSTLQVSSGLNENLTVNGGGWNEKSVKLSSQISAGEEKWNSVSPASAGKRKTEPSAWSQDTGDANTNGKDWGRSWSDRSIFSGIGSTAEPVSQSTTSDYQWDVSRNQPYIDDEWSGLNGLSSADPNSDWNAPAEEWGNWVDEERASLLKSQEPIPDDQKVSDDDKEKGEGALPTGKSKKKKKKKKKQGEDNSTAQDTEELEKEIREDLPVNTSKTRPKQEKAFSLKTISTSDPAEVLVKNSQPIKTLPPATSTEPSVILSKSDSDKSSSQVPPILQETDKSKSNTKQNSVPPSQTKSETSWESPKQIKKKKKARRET

[14] = target: T2, 6-phosphogluconate dehydrogenase, decarboxylating (Homo sapiens) (UniProt P52209); assay: Binding affinity to PGD in human MDA-MB-231 cells assessed as change in melting temperature at 10 uM incubated for 1 hr by cellular thermal shift assay; assay type: cell-based
T2 sequence (whole entry): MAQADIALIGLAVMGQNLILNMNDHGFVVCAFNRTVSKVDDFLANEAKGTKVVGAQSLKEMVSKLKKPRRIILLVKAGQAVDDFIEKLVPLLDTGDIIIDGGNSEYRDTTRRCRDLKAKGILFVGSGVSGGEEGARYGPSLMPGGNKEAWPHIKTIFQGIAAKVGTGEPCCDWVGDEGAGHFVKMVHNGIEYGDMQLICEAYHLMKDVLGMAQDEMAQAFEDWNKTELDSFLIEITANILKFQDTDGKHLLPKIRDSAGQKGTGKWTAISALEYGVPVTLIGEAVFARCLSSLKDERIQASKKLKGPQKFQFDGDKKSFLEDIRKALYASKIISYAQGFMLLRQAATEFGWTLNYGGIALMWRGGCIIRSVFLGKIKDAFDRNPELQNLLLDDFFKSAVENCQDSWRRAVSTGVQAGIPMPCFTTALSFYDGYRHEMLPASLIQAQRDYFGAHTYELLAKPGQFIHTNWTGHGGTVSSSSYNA

[15] = target: T3, Dipeptidyl peptidase 3 (Homo sapiens) (UniProt Q9NY33); assay: Binding affinity to DPP3 in human MDA-MB-231 cells assessed as change in melting temperature at 10 uM incubated for 1 hr by cellular thermal shift assay; assay type: cell-based
T3 sequence (whole entry): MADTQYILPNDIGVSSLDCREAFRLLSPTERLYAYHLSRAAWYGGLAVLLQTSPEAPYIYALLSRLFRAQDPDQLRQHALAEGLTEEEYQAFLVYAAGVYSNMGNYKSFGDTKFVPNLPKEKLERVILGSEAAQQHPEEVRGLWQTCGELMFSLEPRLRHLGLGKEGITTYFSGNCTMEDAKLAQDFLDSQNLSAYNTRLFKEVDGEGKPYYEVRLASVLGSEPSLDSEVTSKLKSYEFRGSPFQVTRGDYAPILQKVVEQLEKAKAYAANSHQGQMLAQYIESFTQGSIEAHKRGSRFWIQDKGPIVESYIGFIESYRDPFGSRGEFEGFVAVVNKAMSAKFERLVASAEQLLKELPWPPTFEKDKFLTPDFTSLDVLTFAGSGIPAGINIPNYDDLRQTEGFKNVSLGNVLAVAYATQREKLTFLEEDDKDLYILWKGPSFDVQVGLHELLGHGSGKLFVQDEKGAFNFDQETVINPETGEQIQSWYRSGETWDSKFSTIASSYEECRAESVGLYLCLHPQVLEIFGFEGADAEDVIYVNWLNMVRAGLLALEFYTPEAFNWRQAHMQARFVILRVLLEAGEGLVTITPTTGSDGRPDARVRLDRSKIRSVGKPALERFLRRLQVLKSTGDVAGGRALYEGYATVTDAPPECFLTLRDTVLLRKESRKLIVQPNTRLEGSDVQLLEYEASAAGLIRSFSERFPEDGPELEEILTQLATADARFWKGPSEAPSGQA

SMILES | IC50 (SK-OV-3) | IC50 (OVCAR-3) | IC50 (MDA-MB-231 [1]) | other results
C=CCc1cc(-c2cc(CCCn3cc(CCCC(=O)Nc4ccc(C(=O)c5ccc(NC(=O)CCCC[C@@H]6SC[C@@H]7NC(=O)N[C@@H]76)cc5)cc4)nn3)ccc2OCC)ccc1O | > 100 µM | > 100 µM | > 100 µM | 
C=CCc1ccc(OCC)c(-c2ccc(O)c(CC=C)c2)c1 | 43 µM | 37 µM | 28 µM | 
C=CCc1ccc(OCC)c(-c2ccc(O)c(CCCn3cc(CCCC(=O)Nc4ccc(C(=O)c5ccc(NC(=O)CCCC[C@@H]6SC[C@@H]7NC(=O)N[C@@H]76)cc5)cc4)nn3)c2)c1 | > 100 µM | > 100 µM | > 100 µM | 
C=CCc1cc(-c2cc(Cc3cn(CCCCCC(=O)Nc4ccc(C(=O)c5ccc(NC(=O)CCCC[C@@H]6SC[C@@H]7NC(=O)N[C@@H]76)cc5)cc4)nn3)ccc2OCC)ccc1O | > 100 µM | > 100 µM | > 100 µM | 
C#CCCC1(CCC(=O)NCCCc2ccc(OCC)c(-c3ccc(O)c(CC=C)c3)c2)N=N1 | 39 µM | 30 µM | 37 µM | Drug uptake [2]: Not_active; Drug uptake [3]: Not_active; Drug uptake [4]: Not_active; Drug uptake [5]: Active; Drug uptake [6]: Active; Drug uptake [7]: Not_active; Drug uptake [8]: Not_active; Drug uptake [9]: Active; Drug uptake [10]: Not_active; Drug uptake [11]: Dose-dependent-effect
C=CCc1ccc(OCCCn2cc(CCCC(=O)Nc3ccc(C(=O)c4ccc(NC(=O)CCCC[C@@H]5SC[C@@H]6NC(=O)N[C@@H]65)cc4)cc3)nn2)c(-c2ccc(O)c(CC=C)c2)c1 | > 100 µM | > 100 µM | > 100 µM | 
C=CCc1ccc(O)c(-c2ccc(O)c(CC=C)c2)c1 [HONOKIOL] | 48 µM | 51 µM | 46 µM | ΔTm (MDA-MB-231 [12]): 4.3 °C; ΔTm [13]: 1 °C; ΔTm [14]: 1.6 °C; ΔTm [15]: 2.3 °C
C#CCCC1(CCC(=O)NCCCc2cc(-c3cc(CC=C)ccc3OCC)ccc2O)N=N1 | 44 µM | 50 µM | 39 µM | Drug uptake [2]: Not_active; Drug uptake [3]: Not_active; Drug uptake [4]: Not_active; Drug uptake [7]: Not_active; Drug uptake [8]: Not_active; Drug uptake [9]: Not_active; Drug uptake [10]: Not_active; Drug uptake [11]: Dose-dependent-effect
